Legend:
[1] = test system: nitrification in the soil; experiment: Laboratory soil incubation, Templeton sandy loam with synthetic cow urine, nitrate-N
Method: A Templeton sandy loam was used in this experiment. 500 g of soil (dry weight basis) was packed into a pottle. 50 mL of synthetic cow urine with an N concentration of 7 g N/L (comprising about 87% urea-N and 13% glycine-N) was applied to the soil (equivalent to 700 kg N/ha on weight basis, assuming bulk density of 1 g/cm^3 in the top 10 cm of soil). The 700 kg N/ha application was used to simulate the urine-N application rate under a typical dairy cow urine patch in a grazed pasture.
Control treatments also added to soil were: • urine alone (50 mL); • DMSO (equivalent to 0.9 mL/500 g soil)+urine (50 mL) to determine the effect of DMSO on nitrification rate; • water alone (50 mL) (simulating areas of the soil where no urine was deposited).
Pottles were covered with lids with breathing holes to allow for gas exchange during incubation. Pottles were incubated at 12° C. Soil moisture content was maintained at field capacity by adjusting on weight basis twice a week.
Soil samples were collected and were then thoroughly mixed and subsamples were extracted in a potassium chloride solution and analysed for mineral-N. Soil moisture content was also determined. Samples were taken at 30 days after the start of incubation. […]

N. europaea cells = experiment: Oxygen consumption rate of N. europaea whole cells (Oroboros oxygraph); format: cell-based, Nitrosomonas europaea; conditions: 25° C.
Method: To begin to understand the mechanism of action of 4-Ethynylanisole the oxygen consumption rate was measured utilising an Oroborus oxygraphy-2k (Oroboros Instruments). Prior to the experiment, N. europaea cells were grown in ATCC 2265 medium for four days. After which time whole cells of N. europaea were washed extensively as previously described and re-suspended in ATCC 2265 wash buffer (no ammonium) to an OD600 of 0.25. Prior to each experiment being initiated by the addition of a metabolizable energy source (ammonium or hydroxyl amine), the oxygen concentration in the assay suspension (2 ml of cells at OD600 of 0.25) was equilibrated for 2-3 min with air until a stable signal was obtained. Under normal experimental conditions this typically yielded an oxygen concentration of approximately 220 μM. After the oxygen concentration had stabilised in the Oroborus oxygraphy-2k reaction cell, rubber stoppers were subsequently inserted to enclose the system. To initiate respiration, ammonium sulphate (12.5 mM) or hydroxyl amine (6.25 mM) were injected directly into washed cell suspension of N. europaea. […] All measurements were made at 25° C. with stirring at 750 rpm and a data recording interval of 1 s^−1.

C#Cc1ccc(OC)cc1 [4-Ethynylanisole, 1-ethynyl-4-methoxybenzene]
nitrate-N concentration in the soil compared with urine alone ([1]; Study 1-14, 2 to 20 kg/ha, day 30): significantly lower nitrate-N concentrations
soil nitrate-N concentration changes with time ([1]; Study 1-14, range of rates 2, 5, 10, 20 kg/ha, days 1, 14, 30): significant inhibition of nitrate production
ammonium-driven oxygen consumption (N. europaea cells; ammonium sulphate 12.5 mM): reduced to zero
hydroxylamine (H3NO)-driven oxygen consumption (N. europaea cells; hydroxyl amine 6.25 mM): not affected
